# Assay results reported in publication PMC12040169 (PLOS Biology, 2025).
# Target: T1, acyl-modification-free ctFabH (Chlamydia trachomatis, UniProt O84242)
# T1 construct: gene fabH
# T1 sequence (O84242 2-327): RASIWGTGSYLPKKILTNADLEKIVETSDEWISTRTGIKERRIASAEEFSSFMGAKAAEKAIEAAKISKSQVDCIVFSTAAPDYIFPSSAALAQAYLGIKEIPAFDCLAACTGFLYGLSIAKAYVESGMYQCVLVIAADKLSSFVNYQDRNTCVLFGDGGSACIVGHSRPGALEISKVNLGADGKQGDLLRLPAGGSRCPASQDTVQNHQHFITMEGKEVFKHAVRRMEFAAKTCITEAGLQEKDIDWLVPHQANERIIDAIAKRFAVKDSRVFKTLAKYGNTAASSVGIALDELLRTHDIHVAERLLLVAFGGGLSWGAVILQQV
# Assay: intact protein LC/MS
# Assay type: biochemical
# Conditions: covalent acyl-enzyme intermediate; 10 µM protein, 50 µM acyl-CoA, pH 7.0
compound,measurement,value
CC(C)CC(=O)SCCNC(=O)CCNC(=O)[C@H](O)C(C)(C)COP(=O)(O)OP(=O)(O)OC[C@H]1O[C@@H](n2cnc3c(N)ncnc32)[C@H](O)[C@@H]1OP(=O)(O)O [isovaleryl-CoA],intact protein LC/MS,"2-methylbutyryl-CoA or isovaleryl-CoA, as expected, generated the corresponding acyl-enzyme intermediates"
